# Measured values published in ChEMBL document CHEMBL1143605, “A pharmacophore hypothesis for P-glycoprotein substrate recognition using GRIND-based 3D-QSAR” (2005).
# Tested on: MES-SA
# Assay: Inhibition of compound against MES-SA/DX5 cell line was determined using P-glycoprotein assay
# Assay type: functional, Homo sapiens
row,SMILES,log10 % Pgp inhibition vs cyclosporin A
1,C[C@H]1C[C@H]2[C@@H]3CCC4=CC(=O)C=C[C@]4(C)[C@H]3C(=O)C[C@]2(C)[C@@]1(O)C(=O)CO [MEPREDNISONE],0.86
2,Cc1nc2sccn2c(=O)c1CCN1CCC(=C(c2ccc(F)cc2)c2ccc(F)cc2)CC1 [RITANSERIN],1.69
3,CCCCOc1cc(C(=O)OCCN(CC)CC)ccc1N [BENOXINATE],0.84
4,OCCN1CCN(CCCN2c3ccccc3Sc3ccc(C(F)(F)F)cc32)CC1 [FLUPHENAZINE],1.4
5,CN(C)CC/C=C1/c2ccccc2Sc2ccc(Cl)cc21 [CHLORPROTHIXENE],1.27
6,OCc1cc(C(O)CNCCCCCCOCCCCc2ccccc2)ccc1O (stereo unspecified) [SALMETEROL],0.83
7,CC(C)(C)c1ccc(C(=O)CCCN2CCC(OC(c3ccccc3)c3ccccc3)CC2)cc1 [EBASTINE],1.76
8,CCC(COC(=O)c1cc(OC)c(OC)c(OC)c1)(c1ccccc1)N(C)C (stereo unspecified) [TRIMEBUTINE],1.75
9,CCN(CC)C(=O)N[C@H]1C[C@@H]2c3cccc4[nH]cc(c34)C[C@H]2N(C)C1 [TERGURIDE],1
10,CCSc1ccc2c(c1)N(CCCN1CCN(C)CC1)c1ccccc1S2 [THIETHYLPERAZINE],1.26
11,COc1ccc(CCN(C)CCCC(C#N)(c2ccc(OC)c(OC)c2)C(C)C)cc1OC (stereo unspecified) [VERAPAMIL],1.63
12,CC(=O)c1ccc2c(c1)N(CCCN(C)C)c1ccccc1S2 [ACEPROMAZINE],0.8
13,CC(C)/N=c1\cc2n(-c3ccc(Cl)cc3)c3ccccc3nc-2cc1Nc1ccc(Cl)cc1 [CLOFAZIMINE],1.8
14,CCCCc1oc2ccccc2c1C(=O)c1cc(I)c(OCCN(CC)CC)c(I)c1 [AMIODARONE],1.46
15,CCc1nn(CCCN2CCN(c3cccc(Cl)c3)CC2)c(=O)n1CCOc1ccccc1 [NEFAZODONE],1.83
16,CSc1ccc2c(c1)N(CCC1CCCCN1C)c1ccccc1S2 (stereo unspecified) [THIORIDAZINE],1.65
17,COc1ccc([C@@H]2Sc3ccccc3N(CCN(C)C)C(=O)[C@@H]2OC(C)=O)cc1 [DILTIAZEM],1.18
18,CN1CCN(CC/C=C2/c3ccccc3Sc3ccc(S(=O)(=O)N(C)C)cc32)CC1 [THIOTHIXENE],1.23
19,CN1CCCC(n2nc(Cc3ccc(Cl)cc3)c3ccccc3c2=O)CC1 (stereo unspecified) [AZELASTINE],1.75
20,C=CC1CN2CCC1CC2C(=O)c1ccnc2ccc(OC)cc12 (stereo unspecified),1.26
21,CC[C@H]1CN2CCc3cc(OC)c(OC)cc3[C@@H]2C[C@@H]1C[C@H]1NCCc2cc(OC)c(OC)cc21 [EMETINE],0.88
22,CN(C)CCOC(C)(c1ccccc1)c1ccc(Cl)cc1 (stereo unspecified) [CHLORPHENOXAMINE],0.91
23,CC(C)(C)c1ccc(C(O)CCCN2CCC(C(O)(c3ccccc3)c3ccccc3)CC2)cc1 (stereo unspecified) [TERFENADINE],1.65
24,CCN(CC)CC#CCOC(=O)C(O)(c1ccccc1)C1CCCCC1 (stereo unspecified) [OXYBUTYNIN],1.12
25,CC(C)COCC(CN(Cc1ccccc1)c1ccccc1)N1CCCC1 (stereo unspecified) [BEPRIDIL],1.56
26,CN(C)C(=O)C(CCN1CCC(O)(c2ccc(Cl)cc2)CC1)(c1ccccc1)c1ccccc1 [LOPERAMIDE],1.58
